Data reported in US10908141B2, “Methods and kits for detecting non-luminescent or weakly luminescent metals” (New York University, priority 2012, dated 2021).
“And” between values parts separate entries of the source, which are not always exact repeats. Equal values may be shown once.

Legend:
[1] = in vivo; cited from earlier work
[2] = Diffusivity by dynamic light scattering (DLS); format: physicochemical
[3] = Stability of the chelate in solution over time (Tb/Gd metal exchange); format: physicochemical; conditions: 5, 30, and 60 minutes
Text: To determine the stability of the chelate in solution as a function of time, readings were made at different time points. If there is an exchange of Tb with Gd on the sensitized chelate, then a dramatic increase in signal should be observed. The intensity of cs124-DTPA-Tb is 10000 fold higher than the equivalent concentration of cs124-DTPA-Gd.

[4] = Absorption and fluorescence spectroscopy (plate reader / nanodrop); format: physicochemical
[5] = mouse plasma, 0.1 mmol/kg via saphenous vein, bi-exponential fit
[6] = Xylenol orange determination of free Gd3+ after chelation; format: physicochemical
Description: When xylenol orange coordinates Gd^3+ ion, absorption at 573 decreases relative to that at 433.
For determination of free Gd^3+ in solution after chelation. 3 mg xylenol orange was dissolved in 50 mM acetic acid pH 5.8, and 90 μL added to each well of a clear 96 well plate. Triplicate samples of 10 μL 10^−3M cs124-DTPA were added to each well, and increasing amounts of […] titrated in. Absorption was read at 573 and 433, against a standard of known Gd^3+ concentration.

| Molecule | Distribution half-life [1] [min] | Distribution time (manufacturer's data) [1] [min] | Elimination time (manufacturer's data) [1] [min] | Plasma clearance half-life [1] | Relaxivity r1 (Relaxivity r1) [M⁻¹ ms⁻¹] | Diffusivity D [2] | Change of intensity over time (metal exchange between sensitized and unsensitized chelates) [3] | Relaxivity compared with DTPA-Gd (Relaxivity r1) | Absorbance Amax [4] [nm] | Fluorescence Emmax [4] [nm] | Fluorescence Exmax [4] [nm] | Characteristic distribution time [5] | Elimination time [5] | Free Gd3+ ion concentration ([6]; incubated with 50 mM xylenol orange) [%] | Concentration of chelated complex above which free Gd3+ is detectable ([6]; incubated with xylenol orange in 50 mM acetic acid pH 5.8) |
| --- | --- | --- | --- | --- | --- | --- | --- | --- | --- | --- | --- | --- | --- | --- | --- |
| O=C([O-])CN(CCN(CC(=O)[O-])CC(=O)O)CCN(CC(=O)[O-])CC(=O)O.[Gd+3] [Magnevist ®, gadolinium-diethylenetriaminepentaacetic acid] | 12 | 12.2 ± 7.8 | 96.0 ± 7.8 | approximately 81 min | 3.4 |  |  |  |  |  |  |  |  |  |  |
| [Gd+3] [Gd3+, reference compound] |  |  |  |  | 9.16 ± 0.96 | 8.0 × 10^−6 cm^2/s |  |  |  |  |  |  |  |  |  |
| carbostyril-124-diethylenetriaminepentaacetic acid-Gadolinium [cs124-DTPA-Gd] |  |  |  |  | 3.32 ± 1.4 | 2.5 × 10^−6 cm^2/s | No significant change | the same as that of DTPA-Gd | 328 | 375 | 341 | 13.2 ± 0.543 min and 14 min | 92.2 ± 11.7 min and 90 min | 0.06 | above 1.75 mM |
| Cc1cc(=O)[nH]c2cc(N)ccc12 [cs124, carbostyril124, reference compound] |  |  |  |  |  |  |  |  | 328 | 370 | 310 |  |  |  |  |
